# Patent US11415493B2, “Detection of cells in a liquid sample” (DELTA INSTRUMENTS B.V., priority 2016, dated 2022)
# “Also recorded” adds a separate entry of the source.
# Legend:
# [1] = test system: E. coli; test: Validation of flow cytometer bacterial counts versus Petrifilm CFU counts, E. coli cultures; format: cell-based, Escherichia coli; details: Tris-buffered saline pH 8.5, 50° C.
# Protocol: First, an experiment was performed to confirm that bacterial counts obtained on the flow cytometer using GelGreen™ did correlate with traditional plate counts. For this, the Petrifilm method was selected (Standard Methods for Examination of Dairy Products 17th Edition 2004. Edited by H. M. Wehr and J. R. Frank. American Public Health Association, 800 I Street, NW, Washington D.C. 200001. Chapter 6.040), rather than a poured agar plate method, because of ease of use. Escherichia coil (E. coli) cultures were grown at 36° C. in Trypticase Soy Broth (TSB) in a culture tube. A staining composition was prepared as follows: The nucleic acid dye GelGreen™ (from Biotium) was diluted to 1× from the 10,000× commercially available stock, into Tris-buffered saline (100 mM Trizma base, 100 mM Trizma HCl, 150 mM NaCl, pH 8.5), which was preheated to 50° C. […] The stained E. coli was analyzed on the flow cytometer and the FL1 (Bandpass 531 nm (519-551)) and FL2 (Long pass >550 nm) fluorescence channels were used to identify the stained bacteria (FIGS. 1A and 1C). […] Each dilution of E. coli was stained with the GelGreen™ reagent, analyzed on the flow cytometer and counts for each dilution were obtained. […] The Petrifilms were placed in a 30° C. incubator, removed after 48 hrs and the colonies on each Petrifilm were counted using an automated colony counter. […]
# [2] = test system: E. coli; test: Staining E. coli in spiked raw milk and saline at different temperatures, flow cytometry; format: cell-based, Escherichia coli; details: around 60° C. versus lower temperatures (40, 35, 25, 23° C.), 1 minute, pH 10.6
# Protocol: Both solutions were spiked with E. coli bacteria by adding 200 μl bacterial culture to 45 ml solution. The staining composition was prepared with the same dilution of GelGreen™ (from Biotium) as described in Example 1, but this time into a Tris-saline solution (200 mM Trizma base, 150 mM NaCl, pH 10.6) further comprising 0.12 AU/ml liquid Alcalase® 2.4 L FG (from Novozymes). Incubations were as described in the previous examples, except that spiked raw milk samples were incubated at 60, 40 and 23° C. and spiked saline samples were incubated at 60, 35 and 25° C. for 1 minute. […] Each panel contains four quarters: Q1, Q2, Q3 and Q4. The counts provided in Q4 represent the number of cells given in each of these four quarters. […] The optimal range as disclosed herein is 40 to 70° C., a further preferred range is 60 to 68° C. and a highly preferred temperature point is 62° C.
# [3] = test system: E. coli; test: Staining E. coli culture with different nucleic acid dyes, flow cytometer counts (FL1FL2 region); format: cell-based, Escherichia coli
# Protocol: First, an experiment was performed to confirm that bacterial counts obtained on the flow cytometer using GelGreen™ did correlate with traditional plate counts. For this, the Petrifilm method was selected (Standard Methods for Examination of Dairy Products 17th Edition 2004. Edited by H. M. Wehr and J. R. Frank. American Public Health Association, 800 I Street, NW, Washington D.C. 200001. Chapter 6.040), rather than a poured agar plate method, because of ease of use. Escherichia coil (E. coli) cultures were grown at 36° C. in Trypticase Soy Broth (TSB) in a culture tube. A staining composition was prepared as follows: The nucleic acid dye GelGreen™ (from Biotium) was diluted to 1× from the 10,000× commercially available stock, into Tris-buffered saline (100 mM Trizma base, 100 mM Trizma HCl, 150 mM NaCl, pH 8.5), which was preheated to 50° C. The used dilution of 1:10,000 of the GelGreen™ is in accordance with the manufacturer's recommendation for using GelGreen™ for the purpose it was intended for, namely staining DNA in an agarose gel. This is the dilution of GelGreen™ used in all the examples herein. The E. coli culture was removed from the 36° C. incubator and a small volume was diluted 1:100 into the preheated staining composition and incubated for approximately 4.5 min at 50° C. The stained E. coli was analyzed on the flow cytometer and the FL1 (Bandpass 531 nm (519-551)) and FL2 (Long pass >550 nm) fluorescence channels were used to identify the stained bacteria (FIGS. 1A and 1C). A rectangular region was defined around the positively stained cells identified as live cells in the FL1 versus FL2 2-dimensional correlation plot (FIG. 1B). A count per mL of the E. coli was obtained from the flow cytometry analysis. The E. coli culture was then diluted in TSB to obtain 3 different concentrations (1:10, 1:100 and 1:1000, respectively). The E. coli cultures were kept at 4° C. to minimize further growth until analysis. Each dilution of E. coli was stained with the GelGreen™ reagent, analyzed on the flow cytometer and counts for each dilution were obtained. Each E. coli culture was also appropriately diluted in Butterfield's PBS and 1 mL of the appropriately diluted culture was plated on Petrifilms in duplicate. The Petrifilms were placed in a 30° C. incubator, removed after 48 hrs and the colonies on each Petrifilm were counted using an automated colony counter. An average CFU/mL for each E. coli dilution was obtained. The Log of the flow cytometer bacterial counts using GelGreen™ was plotted versus the Log CFU counts from the Petrifilm (FIG. 2).
# To show where the bacteria in the FL1 and FL2 signal plots can be expected, bacteria were first counted in the staining composition without adding any milk. A culture of E. coli were grown at 36° C. in Trypticase Soy Broth (TSB) in a culture tube. The nucleic acid dye GelGreen™ was diluted into Tris-buffered saline, at approximately pH 8.5, which was preheated to 50° C. The E. coli culture was removed from the 36° C. incubator and a small volume was diluted 1:100 into the preheated staining composition and incubated for approximately 4.5 min at 50° C. The stained E. coli was analyzed on the flow cytometer and the FL1 and FL2 fluorescence channels were used to identify the stained bacteria (FIG. 3A).
# A culture of E. coli was grown at 36° C. in Trypticase Soy Broth (TSB), stained with GelGreen™ and counted on the flow cytometer (FIG. 5) as described in example 2. The E. coli culture was then kept at 4° C. until stained with other nucleic acid dyes. The nucleic acid dyes TOTO®-1 and SYBR® Safe (both from Thermo Fisher Scientific) were selected as alternatives. […] Both dyes have similar spectral properties to GelGreen™ and were diluted in Tris-buffered saline using the same dilution factor as GelGreen™. […]
# [4] = test system: bacteria in raw milk; test: IBC in raw milk samples at different pH settings, flow cytometer; format: cell-based
smiles,measurement,setting,value
CN(C)c1ccc2cc3ccc(N(C)C)cc3[n+](CCCCCC(=O)NCCCOCCOCCOCCCNC(=O)CCCCC[n+]3c4cc(N(C)C)ccc4cc4ccc(N(C)C)cc43)c2c1.[I-].[I-] [GelGreen™],relationship of Log flow cytometer bacterial counts versus Log CFU counts from Petrifilm,[1],clear linear relationship
same,bacterial cells counted,[2],more bacterial cells could be counted
same,staining of E. coli,"[3]; NaCl solution (saline), 50° C.",minimal staining
same,staining of E. coli,"[3]; NaCl solution (saline), room temperature (23° C.)",does not stain E. coli; also recorded: did not stain bacterial cells
same,staining of E. coli,"[3]; Tris-buffered saline pH 8.5, 50° C., approximately 4.5 min",stains essentially all bacterial cells
same,staining of E. coli,"[3]; Tris-buffered saline pH 8.5, room temperature (23° C.)",does not stain E. coli; also recorded: did not stain bacterial cells
same,IBC higher compared to the reference method (pH 10.6),"[4]; pH 7.0, fresh milk",more than 1.5 million counts per ml
same,IBC compared to the reference method (pH 10.6),[4]; pH 8.7,comparable with the reference method
